# Laboratory results taken from ChEMBL document CHEMBL5723379, “Affinity On-target Cellular Literature for EUbOPEN Chemogenomic Library” (2024).
# Key:
# Set-up in all cases: mode of action Inhibitor, recommended concentration 1 uM
# [1] = target: Sodium/hydrogen exchanger 3 (Homo sapiens, UniProt P48764); test: Affinity On-target Cellular interaction: (Inhibition of Na+/H+ exchange, detection of fluorescence changes in acridine orange pH indicator, mouse fibroblast L cell line) EUB0002709aCl SLC9A3; assay type: functional, cell-based, LAP1
# [2] = target: Na(+)/citrate cotransporter (Homo sapiens, UniProt Q86YT5); test: Affinity On-target Cellular interaction: (Radiolabelled uptake assay with […], HEK293 cells) EUB0002721a SLC13A5; assay type: functional, cell-based
# Acid ceramidase [3] = target: T1, Acid ceramidase (Homo sapiens, UniProt Q13510); test: Affinity On-target Cellular interaction: (Inhibition of ASAH1 in A375 cell lysates overexpressing ASAH1) EUB0002722a ASAH1; assay type: functional, subcellular, A-375
# Acid ceramidase [4] = target: T1, Acid ceramidase; test: Affinity On-target Cellular interaction: (Inhibition of ASAH1 in A375 cell lysates overexpressing ASAH1) EUB0002723a ASAH1; assay type: functional, subcellular, A-375
# [5] = target: Sodium/hydrogen exchanger 1 (Homo sapiens, UniProt P19634); test: Affinity On-target Cellular interaction: ([Na+]uptake assay, PS-120 fibroblasts) EUB0002781aCl SLC9A1; assay type: functional, cell-based, PS120
# Dipeptidyl peptidase 2 [6] = target: T2, Dipeptidyl peptidase 2 (Homo sapiens, UniProt Q9UHL4); test: (§1) Affinity On-target Cellular interaction: (inhibition of fluorogenic substrate cleavage, U937 cell) EUB0002750aCl DPP7; assay type: functional, cell-based, U-937
# Dipeptidyl peptidase 2 [7] = target: T2, Dipeptidyl peptidase 2; test: as §1; assay type: functional, cell-based, U-937; remark: listed apart in the source
# [8] = target: T3, Monocarboxylate transporter 4 (Homo sapiens, UniProt O15427); test: (§2) Affinity On-target Cellular interaction: (Inhibition of lactate import in MDA-MB-231 cells) EUB0002761a SLC16A3; assay type: functional, cell-based
# [9] = target: T3, Monocarboxylate transporter 4; test: as §2; assay type: functional, cell-based; remark: listed apart in the source
# Zinc transporter SLC39A7 = Zinc transporter SLC39A7 (Homo sapiens, UniProt Q92504); test: Affinity On-target Cellular interaction: (HES-LUC reporter gene assay, U2OS cells) EUB0002669a SLC39A7; assay type: functional, cell-based
# [10] = target: Monocarboxylate transporter 8 (Homo sapiens, UniProt P36021); test: Affinity On-target Cellular interaction: (Inhibition of radiolabelled [125I]T3 uptake by target expressed in MDCK1 cells) EUB0002712a SLC16A2; assay type: functional, cell-based, MDCK-I
# Chain of Monocarboxylate transporter 8 (P36021 whole entry): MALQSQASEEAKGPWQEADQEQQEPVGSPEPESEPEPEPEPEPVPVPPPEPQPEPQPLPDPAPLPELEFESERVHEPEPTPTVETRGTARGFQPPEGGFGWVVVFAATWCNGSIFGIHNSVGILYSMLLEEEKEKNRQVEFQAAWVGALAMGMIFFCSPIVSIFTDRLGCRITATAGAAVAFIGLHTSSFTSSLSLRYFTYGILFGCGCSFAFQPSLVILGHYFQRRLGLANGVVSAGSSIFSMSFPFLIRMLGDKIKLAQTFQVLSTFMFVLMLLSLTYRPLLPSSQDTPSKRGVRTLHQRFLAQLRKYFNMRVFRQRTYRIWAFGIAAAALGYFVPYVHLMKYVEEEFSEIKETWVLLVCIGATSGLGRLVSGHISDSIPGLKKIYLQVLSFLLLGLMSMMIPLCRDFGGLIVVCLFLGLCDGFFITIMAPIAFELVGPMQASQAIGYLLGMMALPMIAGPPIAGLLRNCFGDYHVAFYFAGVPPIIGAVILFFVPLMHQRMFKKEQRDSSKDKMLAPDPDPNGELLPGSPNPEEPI
# T1 sequence (Q13510 22-142 limits assumed): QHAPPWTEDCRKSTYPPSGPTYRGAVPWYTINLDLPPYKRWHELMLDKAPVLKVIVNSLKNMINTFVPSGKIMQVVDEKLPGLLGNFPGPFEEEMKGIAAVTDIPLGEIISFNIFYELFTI
# T1 sequence (Q13510 143-395 limits assumed): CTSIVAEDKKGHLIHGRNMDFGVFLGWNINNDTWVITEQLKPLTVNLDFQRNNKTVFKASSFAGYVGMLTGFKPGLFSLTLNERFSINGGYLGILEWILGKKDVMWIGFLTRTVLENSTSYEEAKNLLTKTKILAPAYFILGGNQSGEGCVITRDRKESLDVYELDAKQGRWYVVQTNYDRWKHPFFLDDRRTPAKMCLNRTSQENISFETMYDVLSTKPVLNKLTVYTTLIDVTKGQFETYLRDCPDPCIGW
# T3 sequence (O15427 whole entry): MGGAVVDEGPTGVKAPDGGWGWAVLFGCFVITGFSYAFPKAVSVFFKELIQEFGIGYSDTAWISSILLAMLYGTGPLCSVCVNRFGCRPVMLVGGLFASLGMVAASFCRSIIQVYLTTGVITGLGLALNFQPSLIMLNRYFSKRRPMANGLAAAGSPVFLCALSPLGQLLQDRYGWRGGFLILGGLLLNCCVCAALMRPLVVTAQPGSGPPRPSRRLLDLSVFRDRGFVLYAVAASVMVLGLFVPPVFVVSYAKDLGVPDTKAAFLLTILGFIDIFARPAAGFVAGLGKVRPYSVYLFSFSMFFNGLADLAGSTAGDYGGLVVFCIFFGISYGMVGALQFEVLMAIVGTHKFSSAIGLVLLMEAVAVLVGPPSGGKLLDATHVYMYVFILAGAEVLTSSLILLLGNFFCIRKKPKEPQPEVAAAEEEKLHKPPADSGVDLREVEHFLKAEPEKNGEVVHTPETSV
# Chain of Sodium/hydrogen exchanger 1 (P19634 whole entry): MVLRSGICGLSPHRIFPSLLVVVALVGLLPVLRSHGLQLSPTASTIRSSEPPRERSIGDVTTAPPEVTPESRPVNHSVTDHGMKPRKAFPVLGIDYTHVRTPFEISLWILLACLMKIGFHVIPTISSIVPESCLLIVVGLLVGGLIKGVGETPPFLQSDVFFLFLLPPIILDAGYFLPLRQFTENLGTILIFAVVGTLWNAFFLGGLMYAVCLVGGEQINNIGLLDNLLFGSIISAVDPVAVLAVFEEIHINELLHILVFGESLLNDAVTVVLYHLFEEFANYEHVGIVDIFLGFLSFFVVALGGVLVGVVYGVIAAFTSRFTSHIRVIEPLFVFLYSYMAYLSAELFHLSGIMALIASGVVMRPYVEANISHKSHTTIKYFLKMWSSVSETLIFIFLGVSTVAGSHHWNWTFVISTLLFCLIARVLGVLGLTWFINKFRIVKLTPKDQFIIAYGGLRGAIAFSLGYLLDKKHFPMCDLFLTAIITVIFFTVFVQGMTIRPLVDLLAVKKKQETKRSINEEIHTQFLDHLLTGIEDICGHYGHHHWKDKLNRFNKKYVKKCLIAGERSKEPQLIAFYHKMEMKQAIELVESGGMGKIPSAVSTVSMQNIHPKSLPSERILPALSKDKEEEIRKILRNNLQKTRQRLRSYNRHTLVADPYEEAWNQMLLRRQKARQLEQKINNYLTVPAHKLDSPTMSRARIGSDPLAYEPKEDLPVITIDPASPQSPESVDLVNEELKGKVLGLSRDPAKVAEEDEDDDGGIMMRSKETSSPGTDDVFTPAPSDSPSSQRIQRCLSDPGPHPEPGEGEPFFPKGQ
# Chain of Na(+)/citrate cotransporter (Q86YT5 whole entry): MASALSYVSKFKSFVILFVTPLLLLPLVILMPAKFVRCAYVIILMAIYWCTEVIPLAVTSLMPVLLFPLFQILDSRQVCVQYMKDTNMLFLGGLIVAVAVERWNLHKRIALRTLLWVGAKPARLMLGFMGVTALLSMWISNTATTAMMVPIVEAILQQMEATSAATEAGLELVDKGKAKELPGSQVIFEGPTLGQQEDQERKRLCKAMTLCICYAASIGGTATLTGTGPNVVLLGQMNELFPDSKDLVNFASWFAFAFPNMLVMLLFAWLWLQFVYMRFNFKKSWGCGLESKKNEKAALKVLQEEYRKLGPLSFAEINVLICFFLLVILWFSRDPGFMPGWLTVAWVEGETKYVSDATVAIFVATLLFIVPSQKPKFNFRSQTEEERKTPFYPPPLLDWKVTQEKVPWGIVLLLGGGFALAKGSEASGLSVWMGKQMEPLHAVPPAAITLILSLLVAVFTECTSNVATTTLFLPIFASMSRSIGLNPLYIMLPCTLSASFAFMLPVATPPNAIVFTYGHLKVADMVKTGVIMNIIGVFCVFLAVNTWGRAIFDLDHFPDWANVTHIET
# Chain of Sodium/hydrogen exchanger 3 (P48764 whole entry): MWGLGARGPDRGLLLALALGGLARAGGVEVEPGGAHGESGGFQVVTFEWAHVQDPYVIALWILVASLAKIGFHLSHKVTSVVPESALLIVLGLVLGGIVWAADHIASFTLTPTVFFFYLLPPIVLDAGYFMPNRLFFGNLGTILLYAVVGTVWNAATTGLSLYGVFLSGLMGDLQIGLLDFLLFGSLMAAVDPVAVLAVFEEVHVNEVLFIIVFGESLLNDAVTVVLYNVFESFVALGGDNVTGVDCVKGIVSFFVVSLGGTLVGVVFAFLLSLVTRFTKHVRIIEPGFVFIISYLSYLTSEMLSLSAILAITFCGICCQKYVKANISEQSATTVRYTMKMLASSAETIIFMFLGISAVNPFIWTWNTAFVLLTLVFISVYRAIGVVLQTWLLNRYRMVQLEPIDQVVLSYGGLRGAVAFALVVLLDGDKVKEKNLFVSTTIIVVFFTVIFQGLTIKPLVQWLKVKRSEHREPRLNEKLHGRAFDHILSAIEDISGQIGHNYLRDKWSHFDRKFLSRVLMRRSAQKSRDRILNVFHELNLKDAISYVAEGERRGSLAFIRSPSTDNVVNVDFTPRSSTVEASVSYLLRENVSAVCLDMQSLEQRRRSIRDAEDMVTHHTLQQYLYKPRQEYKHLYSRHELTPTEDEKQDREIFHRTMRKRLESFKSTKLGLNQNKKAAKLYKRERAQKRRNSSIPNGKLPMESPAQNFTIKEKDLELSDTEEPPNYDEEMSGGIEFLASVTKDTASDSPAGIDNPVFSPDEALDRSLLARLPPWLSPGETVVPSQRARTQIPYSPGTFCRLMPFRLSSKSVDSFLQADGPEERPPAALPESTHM
# Chain of Zinc transporter SLC39A7 (Q92504 whole entry): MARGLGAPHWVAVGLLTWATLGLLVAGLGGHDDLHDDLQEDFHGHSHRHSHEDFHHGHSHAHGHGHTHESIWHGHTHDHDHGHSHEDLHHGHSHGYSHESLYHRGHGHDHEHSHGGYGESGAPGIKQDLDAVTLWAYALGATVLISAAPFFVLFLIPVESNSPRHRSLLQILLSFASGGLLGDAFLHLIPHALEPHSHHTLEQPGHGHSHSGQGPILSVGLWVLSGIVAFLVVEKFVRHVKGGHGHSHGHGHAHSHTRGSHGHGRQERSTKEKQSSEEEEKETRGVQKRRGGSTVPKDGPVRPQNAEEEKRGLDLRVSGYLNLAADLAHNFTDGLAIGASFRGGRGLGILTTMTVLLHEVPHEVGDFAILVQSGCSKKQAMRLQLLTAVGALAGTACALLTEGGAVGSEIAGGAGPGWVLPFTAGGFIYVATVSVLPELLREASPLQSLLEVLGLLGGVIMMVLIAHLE
smiles,measurement,setting,value
CC(=Cc1cc(C)ccc1C=C(C)C(=O)NC(=N)N)C(=O)N=C(N)N,IC50,[1],20 nM
O=C(NCc1ccc(Cl)cc1)C1CCN(S(=O)(=O)c2cc(Cl)cc(Cl)c2)CC1,IC50,[2],> 100000 nM
CCCCCCCCCCCCC/C=C/[C@@H](O)[C@H](CO)NC(=O)CBr,Ki,Acid ceramidase [3],29.7 nM
CCCCCCCCCCCCC/C=C/[C@@H](O)[C@H](CO)NC(=O)CCl,Ki,Acid ceramidase [4],40.2 nM
N=C(N)NC(=O)c1cnn(-c2cccc3ncccc23)c1C1CC1,IC50,[5],14 nM
N[C@@H](CCNCc1ccc(Cl)cc1)C(=O)N1CCCCC1,IC50,Dipeptidyl peptidase 2 [6],0.14 nM
same,IC50,Dipeptidyl peptidase 2 [7],0.21 nM
CC(C)(OCc1cc(-c2cccc(OC3CC3)c2)n(-c2ccccc2Cl)n1)C(=O)O,IC50,[8],19 nM
same,IC50,[9],8.6 nM
O=C1Nc2ccccc2C2(CCN(CC(Cc3ccccc3)Nc3nc4ccc(F)cc4s3)CC2)N1 (stereo unspecified),IC50,Zinc transporter SLC39A7,130 nM
COc1cc([C@@H]2Oc3c(O)cc([C@H]4Oc5cc(O)cc(O)c5C(=O)[C@@H]4O)cc3[C@H]2CO)ccc1O [SILICRISTIN A],IC50,[10],110 nM
